Target: T1, farnesyl protein transferase (FPT) (Rattus norvegicus, UniProt Q02293+Q04631)
T1 construct: partially purified rat brain farnesyl protein transferase (FPT); from tissue; host or cells: rat brain
Test: FPT IC50 / FPT inhibition (inhibition of farnesyl protein transferase, in vitro enzyme assay)
Assay type: biochemical
Conditions: for IC50: Ras-CVLS farnesylation by partially purified rat brain FPT

T1 sequence (Q02293 whole entry, one chain of several): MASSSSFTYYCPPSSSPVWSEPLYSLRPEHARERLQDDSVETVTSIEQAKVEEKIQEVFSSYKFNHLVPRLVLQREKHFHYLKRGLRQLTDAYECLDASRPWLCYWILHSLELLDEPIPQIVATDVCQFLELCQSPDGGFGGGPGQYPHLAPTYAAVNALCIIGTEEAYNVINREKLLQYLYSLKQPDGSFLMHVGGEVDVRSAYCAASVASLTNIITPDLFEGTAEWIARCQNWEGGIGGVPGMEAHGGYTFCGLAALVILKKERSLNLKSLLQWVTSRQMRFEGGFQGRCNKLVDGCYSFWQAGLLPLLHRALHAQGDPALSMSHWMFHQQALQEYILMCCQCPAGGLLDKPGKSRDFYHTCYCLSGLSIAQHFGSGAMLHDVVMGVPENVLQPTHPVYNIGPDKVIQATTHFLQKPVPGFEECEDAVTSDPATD

| inhibition at 1.1 µM (@ 1.1 μM) | IC50 | Compound |
| --- | --- | --- |
| 9% |  | O=C(NCCc1ccccn1)C1CCN(C2c3ccc(Cl)cc3CCc3cc(Br)cnc32)CC1 (stereo not drawn) [Example 6, 1-(3-Bromo-8-chloro-6,11-dihydro-5H-benzo[5,6]cyclohepta[1,2-b]pyridin-11-yl)-N-(2-pyridinylethyl)-4-piperidinecarboxamide] |
|  | 0.21 µM | O=C(NCc1cccnc1)C1CCCN(C2c3ccc(Cl)cc3CCc3cc(Br)cnc32)C1 (stereo not drawn) [Example 10, 1-(3-Bromo-8-chloro-6,11-dihydro-5H-benzo[5,6]cyclohepta[1,2-b]pyridin-11-yl)-N-(3-pyridinylmethyl)-3-piperidinecarboxamide] |
|  | 1 µM | O=C(NCCCN1CCCC1=O)[C@@H]1CCCN(C2c3ncc(Br)cc3CCc3cc(Cl)cc(Br)c32)C1 (stereo partly drawn) [Example 54, 1-(3,10-Dibromo-8-chloro-6,11-dihydro-5H-benzo[5,6]cyclohepta[1,2-b]pyridin-11-yl)-N-[3-(2-oxo-1-pyrrolidinyl)propyl]-3-piperidinecarboxamide] |
